Laboratory results from patent US9193722B2, “Tri-cyclic pyrazolopyridine kinase inhibitors” (Vertex Pharmaceuticals Incorporated, priority 2008, dated 2015).

Key:
Format in all cases: biochemical
[1] = target: PKC delta kinase (Homo sapiens, UniProt Q05655); experiment: PKC delta kinase inhibition, coupled-enzyme (NADH absorbance) assay, Ki; conditions: 150 μM ATP, 46 nM PKC delta kinase, 30° C.; read-out: Ki PKC delta
Procedure, shortened: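 PKC delta in 100 mM HEPES pH 7.5, 10 mM MgCl2, 25 mM NaCl, 0.1 mM EDTA, 0.01% Brij, equilibrated 10 min at 30° C with compound from DMSO stock. Started with ATP at 150 μM final; NADH-coupled absorbance at 340 nm followed 15 min at 30° C. Ki from initial rates by non-linear regression.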

[2] = target: PKC alpha kinase (Homo sapiens, UniProt P17252); experiment: PKC alpha kinase inhibition, coupled-enzyme (NADH absorbance) assay, Ki; conditions: 130 μM ATP, 4.5 nM PKC alpha kinase, 30° C.
Procedure, shortened: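 Enzyme in 100 mM HEPES pH 7.5, 10 mM MgCl2, 100 μM CaCl2, 0.01% Brij, preincubated with compound 10 min at 30 °C. Reaction started with 130 μM ATP (final); NADH consumption followed at 340 nm for 15 min at 30 °C. Ki fitted by non-linear regression of initial rates.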

[3] = target: PKC theta kinase (Homo sapiens, UniProt Q04759); experiment: PKC theta kinase inhibition, coupled-enzyme (NADH absorbance) assay, Ki; conditions: 240 μM ATP, 18 nM PKC theta kinase, 30° C.
Sequence of PKC theta kinase (Q04759 whole entry): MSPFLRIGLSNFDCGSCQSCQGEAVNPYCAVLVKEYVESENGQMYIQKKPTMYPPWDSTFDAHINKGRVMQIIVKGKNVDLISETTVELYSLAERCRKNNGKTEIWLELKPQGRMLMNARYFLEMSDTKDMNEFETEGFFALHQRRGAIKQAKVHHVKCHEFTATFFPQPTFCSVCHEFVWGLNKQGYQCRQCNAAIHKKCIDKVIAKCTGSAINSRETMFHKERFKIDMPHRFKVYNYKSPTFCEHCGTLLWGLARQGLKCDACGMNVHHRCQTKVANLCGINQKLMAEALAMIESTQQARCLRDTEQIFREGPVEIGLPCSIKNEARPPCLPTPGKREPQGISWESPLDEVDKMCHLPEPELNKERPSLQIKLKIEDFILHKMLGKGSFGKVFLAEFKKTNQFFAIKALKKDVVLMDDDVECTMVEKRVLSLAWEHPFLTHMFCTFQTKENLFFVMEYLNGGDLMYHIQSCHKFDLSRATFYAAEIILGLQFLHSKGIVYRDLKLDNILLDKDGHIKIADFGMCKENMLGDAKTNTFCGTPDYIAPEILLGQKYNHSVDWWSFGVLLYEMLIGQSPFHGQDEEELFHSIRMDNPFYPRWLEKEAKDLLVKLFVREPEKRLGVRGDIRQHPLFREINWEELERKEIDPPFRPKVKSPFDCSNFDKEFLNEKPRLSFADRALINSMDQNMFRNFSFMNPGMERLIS
Procedure, shortened: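 Coupled-enzyme kinase assay following NADH absorbance at 340 nm, in 100 mM HEPES pH 7.5, 10 mM MgCl2, 25 mM NaCl, 0.1 mM EDTA, 0.01% Brij. Compound in DMSO preincubated with enzyme 10 min at 30 °C. Ki from initial rates by non-linear regression.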

Sequence of PKC delta kinase (Q05655 whole entry): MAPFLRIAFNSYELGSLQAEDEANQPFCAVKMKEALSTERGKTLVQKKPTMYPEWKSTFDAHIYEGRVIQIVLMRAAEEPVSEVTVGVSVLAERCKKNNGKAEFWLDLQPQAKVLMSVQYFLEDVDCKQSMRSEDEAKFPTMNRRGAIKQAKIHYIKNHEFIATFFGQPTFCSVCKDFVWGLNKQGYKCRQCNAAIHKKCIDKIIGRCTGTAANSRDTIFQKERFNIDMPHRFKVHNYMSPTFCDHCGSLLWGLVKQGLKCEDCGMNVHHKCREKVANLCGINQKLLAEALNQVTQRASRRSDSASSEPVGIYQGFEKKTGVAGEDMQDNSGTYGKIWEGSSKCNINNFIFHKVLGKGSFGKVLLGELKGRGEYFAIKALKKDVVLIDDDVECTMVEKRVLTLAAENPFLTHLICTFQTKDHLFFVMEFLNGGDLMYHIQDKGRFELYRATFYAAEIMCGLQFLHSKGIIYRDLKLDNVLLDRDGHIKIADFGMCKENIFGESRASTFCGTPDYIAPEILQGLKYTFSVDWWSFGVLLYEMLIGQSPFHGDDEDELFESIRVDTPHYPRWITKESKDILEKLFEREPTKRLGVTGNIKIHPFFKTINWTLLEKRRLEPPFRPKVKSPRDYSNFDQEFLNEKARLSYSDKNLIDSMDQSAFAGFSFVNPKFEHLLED

Ki [1] [nM] | Ki [2] [nM] | Ki [3] [nM] | Structure (SMILES)
> 2000 | > 1250 | > 700 | c1cnc2[nH]nc(-c3nccc(N4CCNCC4)n3)c2c1 [Compound 81, 3-(4-(piperazin-1-yl)pyrimidin-2-yl)-1H-pyrazolo[3,4-b]pyridine]
> 1250 | > 1250 | < 50 | CC(C)C(C)(O)C1CN(c2ccc(C(F)(F)F)c(-c3n[nH]c4ncccc34)n2)CCN1 (stereo not drawn) [Compound 236]
< 500 | < 2800 | < 50 | CC(C)C[C@H]1CN(c2cccc(-c3n[nH]c4ncccc34)n2)CC[C@H]1N [Compound 118]
< 500 | > 1250 | > 700 | OC1(c2cccc(-c3n[nH]c4ncccc34)n2)CCNCC1 [Compound 60, 4-(6-(1H-pyrazolo[3,4-b]pyridin-3-yl)pyridin-2-yl)piperidin-4-ol]
< 2800 | < 2800 | < 50 | FC(F)(F)c1ccc(N2CCN[C@@H](c3ccccc3)C2)nc1-c1n[nH]c2ncccc12 [Compound 129]
> 1250 | > 1250 | < 500 | CC(C)C[C@@H]1CN(c2ccc(C(F)(F)F)c(-c3n[nH]c4ncccc34)n2)CCN1 [Compound 193]
> 1250 | > 1250 | < 500 | CCC1CN(c2ccc(C(F)(F)F)c(-c3n[nH]c4ncccc34)n2)CCC1C#N (stereo not drawn) [Compound 406]
> 1250 | > 1250 | > 700 | NCC1CN(c2ccc(C(F)(F)F)c(-c3n[nH]c4ncccc34)n2)CCO1 (stereo not drawn) [Compound 336]
< 2800 | > 1250 | < 50 | CC(C)CC1(O)CN(c2ccc(C(F)(F)F)c(-c3n[nH]c4ncccc34)n2)CCC1C#N (stereo not drawn) [Compound 401]
< 500 | > 1250 | < 50 | CC(F)(F)CC1CN(c2ccc(F)c(-c3n[nH]c4ncccc34)n2)CCN1 (stereo not drawn) [Compound 155]
> 1250 | > 1250 | < 50 | CC(C)C(N)[C@@H]1CCCN(c2ccc(F)c(-c3n[nH]c4ncccc34)n2)C1 (stereo partly drawn) [Compound 281]
< 2800 | < 2800 | < 50 | CC(C)C[C@H]1CN(c2nc(-c3n[nH]c4ncccc34)ccc2F)CCN1 [Compound 131]
< 50 | < 500 | < 1 | CC(C)C(C)(O)C1CN(c2nc(-c3n[nH]c4ncccc34)c(F)cc2F)CCN1 (stereo not drawn) [Compound 425]
